Measured values: ChEMBL document CHEMBL5537149, “Design, synthesis, and lead optimization of piperazinyl-pyrimidine analogues as potent small molecules targeting the viral capping machinery of Chikungunya virus” (Eur J Med Chem, 2024)
In brackets after ≈: the same amount, converted by molar mass.

Assays:
[1] = Aqueous solubility of compound at pH 7.4 by HPLC analysis; type: physicochemical
[2] = Metabolic stability in human liver microsomes assessed as half-life preincubated for 5 mins followed by NADPH addition and measured upto 60 mins by HPLC-MS/MS analysis; type: ADME, Microsome; conditions: time < 65 min
[3] = system: Chikungunya virus; test: Antiviral activity against Chikungunya virus infected in African green monkey Vero cells assessed as reduction in viral induced cell death incubated for 5 days by MTS reagent based absorbance method; type: functional, organism-based; conditions: 120 h
[4] = Cytotoxicity against African green monkey Vero cells assessed as reduction in overall metabolic activity incubated for 5 days by MTS reagent based absorbance method; type: toxicity, cell-based; conditions: chlorocebus sabaeus, time 5 day
[5] = Selectivity index, ratio of CC50 for cytotoxicity against African green monkey Vero cells to EC50 for antiviral activity against Chikungunya virus infected in African green monkey Vero cells assessed as reduction in viral induced cell death; type: toxicity, cell-based; conditions: read-out: Ratio CC50/EC50

Row | Structure (SMILES) | solubility [1] [µM] | half-life [2] [min] | EC50 [3] [µM] | CC50 at 120 h [4] [µM] | selectivity ratio [5]
1 | CCNc1nc(C)cc(N2CC3CN(C(=O)c4cc(Cl)cc(Cl)c4)CC3C2)n1 (stereo not drawn) | 109 (≈ 45.8 µg/mL) | > 60 | 19 | – | –
2 | Cc1nc(Cl)c(N)c(N2CCN(C(=O)c3ccc(Cl)cc3)CC2)n1 | – | – | > 88 | > 88 | > 1
3 | CCNc1nc(N2CCN(C(=O)c3ccc(Br)cc3)CC2)cc(C(F)(F)F)n1 | 33 (≈ 15.1 µg/mL) | – | > 100 | > 100 | –
4 | CCNc1cc(C)nc(N2CC3CN(C(=O)c4ccc(Cl)cc4)CC3C2)n1 (stereo not drawn) | – | – | 12 | > 88 | > 7.5
5 | CCNc1nc(C)cc(N2CCC(NC(=O)c3cc(Cl)cc(Cl)c3)CC2)n1 | 100 (≈ 40.8 µg/mL) | – | > 25 | > 100 | –
6 | O=C(c1cc(Cl)cc(Cl)c1)N1CCN(c2nc(C(F)(F)F)nc3[nH]cnc23)CC1 | 73 (≈ 32.5 µg/mL) | – | 77 | – | –
7 | CCNc1nc(C)cc(N2CC(NC(=O)c3cc(Cl)cc(Cl)c3)C2)n1 | 81 (≈ 30.8 µg/mL) | – | > 100 | – | –
8 | CCNc1cc(C)nc(N2CC(NC(=O)c3cc(Cl)cc(Cl)c3)C2)n1 | 47 (≈ 17.9 µg/mL) | – | > 88 | – | –
9 | CCNc1nc(C)cc(N2CCN(C(=O)c3ccc(F)cc3F)CC2)n1 | – | – | > 100 | > 100 | > 1
10 | CCNc1cc(C)nc(N2CCN(S(=O)(=O)c3ccc(Cl)nc3)CC2)n1 | 115 (≈ 45.6 µg/mL) | – | 121 | 97 | 0.8
11 | CCNc1cc(C)nc(N2CCCC(NC(=O)c3cc(Cl)cc(Cl)c3)C2)n1 (stereo not drawn) | 31 (≈ 12.7 µg/mL) | – | > 25 | 49 | < 1.95
12 | O=C(c1ccc(Cl)c(Cl)c1)N1CCN(c2nc(C(F)(F)F)nc3[nH]cnc23)CC1 | 71 (≈ 31.6 µg/mL) | > 60 | 9.5 | – | –
13 | Nc1nc(N2CCN(C(=O)c3cc(Cl)cc(Cl)c3)CC2)c2nc[nH]c2n1 | 47 (≈ 18.4 µg/mL) | – | > 100 | – | –
14 | O=C(c1ccc(Cl)c(Cl)c1)N1CCN(c2ncnc3[nH]cnc23)CC1 | 104 (≈ 39.2 µg/mL) | – | 66 | – | –
15 | CCNc1nccc(N2CCN(C(=O)c3ccc(F)cc3)CC2)n1 | > 120 | – | 216 | > 304 | > 1.4
16 | Cc1nc(Cl)c(N)c(N2CCN(C(=O)c3cc(Cl)cc(Cl)c3)CC2)n1 | 94 (≈ 37.7 µg/mL) | – | 32 | – | –
17 | CCNc1nc(C)cc(N2CCN(C(=O)c3ccc(C)cc3C)CC2)n1 | – | – | > 100 | > 100 | > 1
18 | CCNc1nc(C)cc(N2CC3CCC(C2)N3C(=O)c2ccc(Cl)cc2)n1 | – | – | 17 | 84 | 5
19 | CCNc1nc(C)cc(N2CCC3(CCN(C(=O)c4cc(Cl)cc(Cl)c4)C3)C2)n1 (stereo not drawn) | 98 (≈ 42.6 µg/mL) | > 60 | 11 | – | –
20 | O=C(c1ccc(Cl)cc1)N1CCN(c2ncnc3[nH]cnc23)CC1 | 114 (≈ 39.1 µg/mL) | – | 94 | – | –
21 | CCNc1cc(C)nc(N2CCN(C(=O)C3CCCCC3)CC2)n1 | 119 (≈ 39.4 µg/mL) | – | 70 | 147 | 2.1
22 | Nc1nc(N2CCN(C(=O)c3ccc(Cl)cc3)CC2)c2nc[nH]c2n1 | 116 (≈ 41.5 µg/mL) | – | > 100 | – | –
23 | O=C(c1cc(Cl)cc(Cl)c1)N1CCN(c2ncnc3[nH]cnc23)CC1 | 112 (≈ 42.3 µg/mL) | – | 32 | – | –
24 | CCNc1cc(C)nc(N2CCC3(CCN(C(=O)c4ccc(Cl)cc4)C3)C2)n1 (stereo not drawn) | – | – | 32 | 74 | 2.3
25 | CCNc1cc(C)nc(N2CCC3(CCN(C(=O)c4cc(Cl)cc(Cl)c4)C3)C2)n1 (stereo not drawn) | 108 (≈ 46.9 µg/mL) | – | 28 | – | –
26 | CCNc1cc(C)nc(N2CC3CN(C(=O)c4cc(Cl)cc(Cl)c4)CC3C2)n1 (stereo not drawn) | 108 (≈ 45.4 µg/mL) | – | 23 | – | –
27 | CCNc1cc(C(F)(F)F)nc(N2CCN(C(=O)c3ccc(Cl)c(Cl)c3)CC2)n1 | – | 36 | > 6.3 | > 25 | –

Row | Structure (SMILES) | solubility [1] [µM] | half-life [2] [min] | EC50 [3] [µM] | CC50 at 120 h [4] [µM] | selectivity ratio [5]
28 | Nc1nc(N2CCN(C(=O)c3ccc(Cl)c(Cl)c3)CC2)c2nc[nH]c2n1 | 106 (≈ 41.6 µg/mL) | – | > 100 | – | –
29 | Cc1nc(N2CCN(C(=O)c3ccc(Cl)cc3)CC2)c2nc[nH]c2n1 | 84 (≈ 30 µg/mL) | – | 97 | – | –
30 | O=C(c1cc(Cl)cc(Cl)c1)N1CCN(c2nc(Cl)nc3[nH]cnc23)CC1 | 66 (≈ 27.2 µg/mL) | > 60 | 18 | – | –
31 | CCNc1cc(C)nc(N2CCN(S(=O)(=O)c3cccs3)CC2)n1 | 68 (≈ 25 µg/mL) | – | 103 | 180 | 1.8
32 | CCNc1nc(C)cc(N2CC3CN(C(=O)c4ccc(Cl)cc4)CC3C2)n1 (stereo not drawn) | – | – | 3.2 | 72 | 23
33 | Cc1cc(N2CCN(S(=O)(=O)c3ccc(F)cc3)CC2)nc(N2CCCC2)n1 | > 120 | – | 25 | 47 | 1.9
34 | CCNc1cc(C)nc(N2CC3CCC(C2)N3C(=O)c2ccc(Cl)cc2)n1 | – | – | 79 | > 88 | > 1.11
35 | CCNc1cc(C)nc(N2CCC3(CC2)CC(=O)c2ccccc2O3)n1 | 100 (≈ 35.2 µg/mL) | – | 23 | – | –
36 | CCNc1cc(C)nc(N2CC3CCC(C2)N3C(=O)c2cc(Cl)cc(Cl)c2)n1 | 97 (≈ 40.8 µg/mL) | – | > 100 | – | –
37 | CCNc1nc(C)cc(N2CCN(C(=O)c3ccc(Cl)cc3Cl)CC2)n1 | > 120 | – | > 100 | 47 | < 0.47
38 | CCNc1cc(C)nc(N2CCC(NC(=O)c3cc(Cl)cc(Cl)c3)CC2)n1 | 52 (≈ 21.2 µg/mL) | – | > 100 | 48 | < 0.48
39 | CCNc1nc(C)cc(N2CC3CCC(C2)N3C(=O)c2cc(Cl)cc(Cl)c2)n1 | 111 (≈ 46.7 µg/mL) | > 60 | 14 | – | –
40 | CCNc1cc(C)nc(NC2CN(C(=O)c3cc(Cl)cc(Cl)c3)C2)n1 | 93 (≈ 35.4 µg/mL) | – | > 100 | – | –
41 | O=C(c1ccc(Cl)cc1)N1CCN(c2nc(C(F)(F)F)nc3[nH]cnc23)CC1 | 36 (≈ 14.8 µg/mL) | – | 26 | – | –
42 | CCNc1nc(C)cc(N2CCC3(CCN(C(=O)c4ccc(Cl)cc4)C3)C2)n1 (stereo not drawn) | – | – | 18 | 45 | 2.5
43 | CC(C)Nc1ccnc(N2CCN(S(=O)(=O)c3ccc(F)cc3)CC2)n1 | 100 (≈ 37.9 µg/mL) | 46 | 10 | – | –
44 | CCNc1nc(C)cc(NC2CN(C(=O)c3cc(Cl)cc(Cl)c3)C2)n1 | 104 (≈ 39.5 µg/mL) | 37 | 8.5 | – | –
45 | CCNc1cc(C)nc(N2CCN(C(=O)c3cc(Cl)cc(Cl)c3)CC2)n1 | 11 (≈ 4.34 µg/mL) | – | 67 | > 100 | > 1.5
46 | Cc1nc(Cl)c(N)c(N2CCN(C(=O)c3ccc(Cl)c(Cl)c3)CC2)n1 | 118 (≈ 47.3 µg/mL) | > 60 | 9.8 | – | –
47 | Cc1cc(N2CCN(C(=O)c3cccc(Br)c3)CC2)nc(N(C)C)n1 | – | – | 100 | > 100 | > 1
48 | Cc1cc(N(C)C)nc(N2CCN(C(=O)c3cc(Cl)cc(Cl)c3)CC2)n1 | 95 (≈ 37.5 µg/mL) | – | > 100 | > 100 | –
49 | CCNc1nc(N2CCN(C(=O)c3ccc(Cl)c(Cl)c3)CC2)cc(C(F)(F)F)n1 | – | – | > 100 | > 100 | –
50 | CCNc1cc(N2CCN(S(=O)(=O)c3ccc(F)cc3)CC2)ncn1 | 94 (≈ 34.4 µg/mL) | – | > 274 | – | –
51 | CCNc1cc(C(F)(F)F)nc(N2CCN(C(=O)c3cccc(Br)c3)CC2)n1 | 0.8 (≈ 0.367 µg/mL) | 17 | 41 | – | –
52 | CCNc1nc(C)cc(N2CCC3(CC2)CC(=O)c2ccccc2O3)n1 | 98 (≈ 34.5 µg/mL) | > 60 | 4.2 | – | –
53 | Cc1nc(N2CCN(C(=O)c3cc(Cl)cc(Cl)c3)CC2)c2nc[nH]c2n1 | 92 (≈ 36 µg/mL) | – | > 100 | – | –
